# How the values were obtained:
# [1] = Metabolic stability in human liver microsomes (in vitro t1/2); assay type: in vitro ADME; details: for half-life at 2 µM: human liver microsomes 0.5 mg/mL, 2 μM compound, read-out: Human microsome t1/2, min; for Human microsome % 60 min: human liver microsomes
# Protocol: (§1) The following are assays that may be used to evaluate the metabolic stability of compounds of Formula (I) in human, rat, or mouse microsomes. The assays follow a common procedure recited below. 1. […] Two separated experiments were performed as follows. a) With NADPH: 10 μL of 20 mg/mL liver microsomes and 40 μL of 10 mM NADPH were added to the incubations. […] The final concentration of microsomes was 0.5 mg/mL. 3. The reaction was started with the addition of 4 μL of 200 μM control compound or test compound solutions. Verapamil was used as positive control in this study. The final concentration of test compound or control compound was 2 μM. 4. Aliquots of 50 μL were taken from the reaction solution at 0, 15, 30, 45 and 60 min. […] Samples were centrifuged at 3,220 g for 40 minutes. A 90 μL aliquot of the supernatant was mixed with 90 μL of ultra-pure H2O and then used for LC-MS/MS analysis. 5. Data analysis. All calculations were carried out using Microsoft Excel. Peak areas were determined from extracted ion chromatograms. The slope value, k, was determined by linear regression of the natural logarithm of the remaining percentage of the parent drug vs. incubation time curve. The in vitro half-life (in vitro t1/2) was determined from the slope value: in vitro t1/2=−(0.693)/k.
# [2] = Metabolic stability in mouse liver microsomes (in vitro t1/2); assay type: in vitro ADME; details: for half-life at 2 µM: mouse liver microsomes 0.5 mg/mL, 2 μM compound, read-out: Mouse microsome t1/2, min; for Mouse microsome % 60 min: mouse liver microsomes
# Protocol: as §1
# MCT4 = MCT4 (Homo sapiens (Human), UniProt O15427); assay: Assay 3: MCT4-mediated lactate transport in MDA-MB-231 breast cancer cells; assay type: cell-based; details: MDA-MB-231 cells; lactate transport
# In short: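 Read-out is BCECF fluorescence tracking the intracellular pH shift from MCT4-mediated lactate/H+ co-transport. Before measurement, MDA-MB-231 cells take up BCECF-AM for 5 min at 37° C, then are washed into Tyrode's Solution, pH 7.4.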
# MCT1 = MCT1 (Homo sapiens (Human), UniProt P53985); assay: Assay 4: MCT1-mediated lactate transport in BT20 breast cancer cells; assay type: cell-based; details: Table 27
# In short: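 Transport started with 10 mM L-lactate on BCECF-loaded BT20 cells in Tyrode's Solution, pH 7.4. Dye loading: BCECF-AM ester (30 mM DMSO stock), 5 min at 37° C, then one wash.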
# Chain of MCT1 (P53985 whole entry): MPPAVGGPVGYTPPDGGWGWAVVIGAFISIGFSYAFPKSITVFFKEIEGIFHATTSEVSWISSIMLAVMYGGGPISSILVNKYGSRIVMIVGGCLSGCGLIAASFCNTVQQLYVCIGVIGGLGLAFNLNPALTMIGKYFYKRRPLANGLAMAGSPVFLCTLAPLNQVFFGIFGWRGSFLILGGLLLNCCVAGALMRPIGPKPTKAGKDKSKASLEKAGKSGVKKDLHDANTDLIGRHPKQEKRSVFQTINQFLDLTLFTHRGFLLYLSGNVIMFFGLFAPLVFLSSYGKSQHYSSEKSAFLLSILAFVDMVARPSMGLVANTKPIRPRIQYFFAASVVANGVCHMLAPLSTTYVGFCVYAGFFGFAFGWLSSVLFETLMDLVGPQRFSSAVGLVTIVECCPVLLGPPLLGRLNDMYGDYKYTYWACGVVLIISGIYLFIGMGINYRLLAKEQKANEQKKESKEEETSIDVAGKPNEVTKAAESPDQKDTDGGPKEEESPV
# Chain of MCT1 (P35613 140-385 partner): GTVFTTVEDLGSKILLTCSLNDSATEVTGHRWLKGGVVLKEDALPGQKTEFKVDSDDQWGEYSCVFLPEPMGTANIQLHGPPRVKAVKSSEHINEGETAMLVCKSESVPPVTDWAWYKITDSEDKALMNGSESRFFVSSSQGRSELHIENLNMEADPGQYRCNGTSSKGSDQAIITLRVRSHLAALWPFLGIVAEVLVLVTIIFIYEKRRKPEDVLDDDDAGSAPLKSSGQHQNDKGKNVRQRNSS
# Chain of MCT4 (O15427 whole entry, looked up): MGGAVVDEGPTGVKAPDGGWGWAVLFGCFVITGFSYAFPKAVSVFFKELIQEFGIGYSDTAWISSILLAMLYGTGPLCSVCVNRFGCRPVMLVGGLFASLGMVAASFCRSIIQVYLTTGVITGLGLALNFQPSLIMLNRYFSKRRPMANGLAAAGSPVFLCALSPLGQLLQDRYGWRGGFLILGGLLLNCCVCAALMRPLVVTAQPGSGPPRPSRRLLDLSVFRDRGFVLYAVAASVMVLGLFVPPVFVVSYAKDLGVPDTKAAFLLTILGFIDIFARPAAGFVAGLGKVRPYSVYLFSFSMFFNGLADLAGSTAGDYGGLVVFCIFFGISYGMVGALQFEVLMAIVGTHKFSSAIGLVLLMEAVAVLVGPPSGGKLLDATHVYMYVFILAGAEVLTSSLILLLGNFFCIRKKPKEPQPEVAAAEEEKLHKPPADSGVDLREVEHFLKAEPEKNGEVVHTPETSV
# Chain of MCT4 (P35613 whole entry partner, looked up): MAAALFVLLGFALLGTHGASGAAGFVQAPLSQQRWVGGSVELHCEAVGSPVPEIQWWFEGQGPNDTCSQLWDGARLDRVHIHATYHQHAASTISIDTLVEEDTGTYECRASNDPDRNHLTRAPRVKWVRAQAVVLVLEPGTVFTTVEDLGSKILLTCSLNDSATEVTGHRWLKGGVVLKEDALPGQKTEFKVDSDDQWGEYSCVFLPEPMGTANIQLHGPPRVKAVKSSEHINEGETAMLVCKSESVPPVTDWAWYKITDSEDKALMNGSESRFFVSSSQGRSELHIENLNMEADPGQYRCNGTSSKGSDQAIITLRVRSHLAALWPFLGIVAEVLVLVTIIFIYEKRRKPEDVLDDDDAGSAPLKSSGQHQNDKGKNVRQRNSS
half-life at 2 µM [1] [h],Human microsome % 60 min [1] [%],half-life at 2 µM [2] [h],Mouse microsome % 60 min [2] [%],IC50 (MCT4) [nM],IC50 (MCT1) [nM],Structure (SMILES)
13.2,95,6.33,91,–,–,"CCC(C)(OCc1cc(-c2cccc(OC)c2)n(Cc2ccccc2Cl)n1)C(=O)O (centres unmarked) [Example 68, 2-([1-[(2-Chlorophenyl)methyl]-5-(3-methoxyphenyl)-1H-pyrazol-3-yl)methoxy)-2-methylbutanoic acid]"
3.33,82,4.5,84,–,–,COc1ccc(-c2cc(COC(C)(C)C(=O)O)nn2Cc2ccccc2Cl)s1 [Example 64]
1.3,59,12.7,95,–,–,"COc1cccc(-c2c(C)c(COC(C)(C)C(=O)O)nn2Cc2ccccc2Cl)c1 [Example 54, 2-({1-[(2-Chlorophenyl)methyl]-5-(3-methoxyphenyl)-4-methyl-1H-pyrazol-3-yl)methoxy)-2-methylpropionic acid]"
1.27,56,1.32,61,–,–,"COc1cccc(-c2cc(COC(C)(C)C(=O)O)nn2Cc2ccccc2N(C)C)c1 [Example 38, 2-([1-[(2-(Dimethylamino)phenyl]methyl]-5-(3-methoxyphenyl)1H-pyrazol-3-yl]methoxy)-2-methylpropanoic acid]"
–,–,–,–,15,3200,"CCOc1ccccc1Cn1nc(COC(C)(C)C(=O)O)cc1-c1ccc2cnn(C)c2c1 [Example 207, 2-([1-[(2-Ethoxyphenyl)methyl]-5-(1-methyl-1H-indazol-6-yl)-lH-pyrazol-3-yl]-methoxy)-2-methylpropanoic acid]"
–,–,–,–,20,25000,"CC(C)(OCc1cc(-c2cccc(OC3CC3)c2)n(-c2ccccc2F)n1)C(=O)O [Example 181, 2-([5-(3-cyclopropoxyphenyl)-1-(2-fluorophenyl)-1H-pyrazol-3-yl]methoxy)-2-methylpropanoate]"
–,–,–,–,8.1,92000,"Cn1ncc2ccc(-c3cc(COC(C)(C)C(=O)O)nn3-c3ccccc3N3CCCC3)cc21 [Example 230, 2-Methyl-2-([5-(1-methyl-1H-indazol-6-yl)-1-[2-(pyrrolidin-1-yl)phenyl]-1H-pyrazol-3-yl]methoxy]propanoic acid]"
–,–,–,–,285,> 100000,"COc1cc(OC)cc(-c2cc(COC(C)(C)C(=O)O)nn2Cc2ccccn2)c1 [Example 254, 2-([5-(3,5-Dimethoxyphenyl)-1-([pyridin-2-yl]methyl)-1H-pyrazol-3-yl]methoxy)-2-methylpropanoic acid]"
–,–,–,–,21.5,90000,"CC(C)(OCc1cc(-c2cccc(OC3CC3)c2)n(-c2ccccc2OC(F)F)n1)C(=O)O [Example 186, 2-([5-(3-Cyclopropoxyphenyl)-1-[2-(difluoromethoxy)phenyl]-1H-pyrazol-3-yl]-methoxy)-2-methylpropanoic acid]"
–,–,–,–,7.5,22000,"CC[C@](C)(OCc1cc(-c2cccc(OC)c2)n(Cc2ccccc2Cl)n1)C(=O)O [Example 218, (2S)-2-([1-[(2-chlorophenyl)methyl]-5-(3-methoxyphenyl)-1H-pyrazol-3-yl]methoxy)-2-methylbutanoic acid]"
–,–,–,–,420,31000,"COc1cccc(-c2cc(CO[C@@H](C)C(=O)O)nn2Cc2ccccc2Cl)c1 [Example 124, (2S)-2-([1-[(2-Chlorophenyl)methyl]-5-(3-methoxyphenyl)-1H-pyrazol-3-yl]methoxy)-propanoic acid]"
–,–,–,–,690,37000,"CC(C)Oc1ncc(-c2cc(COC(C)(C)C(=O)O)nn2Cc2ccccc2Cl)o1 [Example 227, 2-([1-[(2-Chlorophenyl)methyl]-5-[2-(propan-2-yloxy)-1,3-oxazol-5-yl]-1H-pyrazol-3-yl)methoxy)-2-methylpropanoic acid]"
–,–,–,–,6.3,26000,"COc1cccc(-c2cc(COC(C)(C)C(=O)O)nn2Cc2ccccc2OC2CC2)c1 [Example 142, 2-([1-[(2-Cyclopropoxyphenyl)methyl]-5-(3-methoxyphenyl)-1H-pyrazol-3-yl]methoxy)-2-methylpropanoic acid]"
–,–,–,–,535,> 100000,"COc1cccc(-c2cc(COC(C)(C)C(=O)O)nn2CC2CCOCC2)c1 [Example 138, 2-([5-(3-Methoxyphenyl)-1-([oxan-4-yl]-methyl)-1H-pyrazol-3-yl]methoxy)-2-methylpropanoic acid]"
–,–,–,–,0.3,21000,"CC[C@@](C)(OCc1cc(-c2cccc(OCC(C)(C)C)c2)n(-c2cccc3cnn(C)c23)n1)C(=O)O [Example 223, (2R)-2-([5-[3-(2,2-Dimethyl-propoxy)phenyl]-1-(1-methyl-1H-indazol-7-yl)-1H-pyrazol-3-yl]methoxy)-2-methyl-butanoic acid]"
–,–,–,–,7.6,77000,"COc1cc(OC)cc(-c2cc(COC(C)(C)C(=O)O)nn2-c2ccccc2N(C)C)c1 [Example 245, 2-([5-(3,5-Dimethoxyphenyl)-1-[2-(dimethylamino)phenyl)-1H-pyrazol-3-yl]-methoxy)-2-methylpropanoic acid]"
–,–,–,–,4,14000,"CC[C@@](C)(OCc1cc(-c2cccc(OC)c2)n(Cc2ccccc2Cl)n1)C(=O)O [Example 219, (2R)-2-([1-[(2-chlorophenyl)methyl]-5-(3-methoxyphenyl)-1H-pyrazol-3-yl]methoxy)-2-methylbutanoic acid]"
–,–,–,–,17,43000,CCn1nnc2ccc(-c3cc(COC(C)(C)C(=O)O)nn3Cc3ccccc3Cl)cc21 [Example 261]
–,–,–,–,12,12000,"CCOc1cc(OCC)cc(-c2cc(COC(C)(C)C(=O)O)nn2Cc2ccccc2Cl)c1 [Example 213, 2-([1-[(2-Chlorophenyl)methyl]-5-(3,5-diethoxyphenyl)-1H-pyrazol-3-yl]methoxy)-2-methylpropanoic acid]"
–,–,–,–,1400,> 100000,"CC(C)(OCc1cc(-c2ccccn2)n(-c2ccccc2Cl)n1)C(=O)O [Example 156, 2-([1-(2-Chlorophenyl)-5-(pyridin-2-yl)-1H-pyrazol-3-yl]methoxy)-2-methylpropanoic acid]"
–,–,–,–,195,3300,"COc1cccc(-c2cc(/C=C/C(C)(C)C(=O)O)nn2Cc2ccccc2Cl)c1 [Example 143, (3E)-4-[1-[(2-Chlorophenyl)methyl]-5-(3-methoxyphenyl)-1H-pyrazol-3-yl]-2,2-dimethylbut-3-enoic Acid]"
–,–,–,–,240,> 100000,"Cc1n[nH]c2cccc(-n3nc(COC(C)(C)C(=O)O)cc3-c3cccc(OC4CC4)c3)c12 [Example 154, 2-([5-(3-cyclopropoxyphenyl)-1-(3-methyl-1H-indazol-4-yl)-1H-pyrazol-3-yl]methoxy)-2-methylpropanoic Acid]"
–,–,–,–,41,15000,"COc1ccc(-c2cc(COC(C)(C)C(=O)O)nn2Cc2ccccc2Cl)cc1 [Example 127, 2-([1-[(2-Chlorophenyl)methyl]-5-(4-methoxyphenyl)-1H-pyrazol-3-yl]methoxy)-2-methylpropanoic acid]"
–,–,–,–,6,94000,"CN(C)c1ccccc1Cn1nc(COC(C)(C)C(=O)O)cc1-c1cccc(OC2CC2)c1 [Example 214, 2-([5-(3-Cyclopropoxyphenyl)-1-[[2-(dimethylamino)phenyl)methyl]-1H-pyrazol-3-yl]methoxy)-2-methylpropanoic acid]"
–,–,–,–,43,> 100000,"CCOc1ccccc1-n1nc(COC(C)(C)C(=O)O)cc1-c1cc(OC)cc(OC)c1 [Example 164, 2-([5-(3,5-Dimethoxyphenyl)-1-(2-ethoxy-phenyl)-1H-pyrazol-3-yl]methoxy)-2-methylpropanoic acid]"
–,–,–,–,7.8,31000,"CC(C)(OCc1cc(-c2cccc(OC3CC3)c2)n(-c2ccccc2C(F)(F)F)n1)C(=O)O [Example 190, 2-([5-(3-Cyclopropoxyphenyl)-1-[2-(trifluoromethyl)phenyl]-1H-pyrazol-3-yl]-methoxy)-2-methylpropanoic acid]"

Structure (SMILES),half-life at 2 µM [1] [h],Human microsome % 60 min [1] [%],half-life at 2 µM [2] [h],Mouse microsome % 60 min [2] [%],IC50 (MCT4) [nM],IC50 (MCT1) [nM]
"CC[C@@](C)(OCc1cc(-c2cccc(OCC(C)C)c2)n(-c2cccc3cnn(C)c23)n1)C(=O)O [Example 263, (2R)-2-Methyl-2-([1-(1-methyl-1H-indazol-7-yl)-5-[3-(2-methylpropoxy)phenyl]-1H-pyrazol-3-yl]methoxy]butanoic acid]",–,–,–,–,2.2,16000
